Measurements reported in PMC5349910, “Discovery of BPR1K871, a quinazoline based, multi-kinase inhibitor for the treatment of AML and solid tumors: Rational design, synthesis, in vitro and in vivo evaluation” (Oncotarget, 2016).
Entries after “also recorded” stand apart in the source; their conditions may differ.

Key:
[1] = system: HCC827 cells; experiment: Anti-proliferative activity, HCC827; assay type: cell-based; settings: Homo sapiens, HCC827; NSCLC-EGFR L858R; supplement values ± SEM; read-out: HCC827 EC50
[2] = system: H1975 cells; experiment: Anti-proliferative activity, H1975; assay type: cell-based; settings: Homo sapiens, NCI-H1975; NSCLC-EGFR LR/TM; supplement values ± SEM; read-out: H1975 EC50
[3] = system: CL-97 cells; experiment: Anti-proliferative activity, CL-97; assay type: cell-based, human; settings: CL97; Human Lung Cancer; supplement values ± SEM; read-out: CL-97 EC50
[4] = system: Mia-PaCa2 cells; experiment: Anti-proliferative activity, Mia-PaCa2; assay type: cell-based, human; settings: supplement values ± SEM
[5] = system: phospho AURKA (Thr288), AURKB (Thr232), AURKC (Thr198), and phospho histone H3 (Ser10); experiment: Western blot, phosphorylation of Aurora substrates in HCT-116 cells; assay type: cell-based, human; settings: 2.0 h, dose dependent
From the text: BPR1K871 inhibited phospho AURKA (Thr288), AURKB (Thr232), AURKC (Thr198), and phospho histone H3 (Ser10) formation in HCT-116 cells in a dose dependent manner (Figure 7A).

[6] = system: MOLM-13 tumor xenograft; experiment: MOLM-13 subcutaneous xenograft model; assay type: in vivo; settings: nude mice, iv 1, 3 or 10 mg/kg; hydrochloride salt; p < 0.05
Protocol: Based on the potent in vitro anti-proliferative activity of BPR1K871, it was planned to investigate the in vivo efficacy. […] Subsequently, based on the PK study, we evaluated the acute toxicity of BPR1K871 in ICR mice (n = 3) by iv administration. […] Next, the antitumor activity of BPR1K871 was evaluated through IV route in MOLM-13 and MV4-11 xenograft models (Figure 5). For this, nude mice were inoculated subcutaneously with MOLM-13 and MV4-11 cells in the left flank. […] For MOLM-13 model, BPR1K871 was injected intravenously at 10 mg/kg daily for 5 days (on days 1–5); also BPR1K871 was intravenously administrated at 3 and 1 mg/kg once a day for two continuous weeks (on days 1–5 and 8–12). For MV4-11 model, BPR1K871 was intravenously administrated at 10, 3 and 1 mg/kg once a day for two continuous weeks (on days 1–5 and 8–12).

[7] = target: CYP 2C19 (Homo sapiens, UniProt P33261); experiment: CYP inhibition assay, CYP 2C19; assay type: in vitro ADME
Sequence of CYP 2C19 (P33261 whole entry): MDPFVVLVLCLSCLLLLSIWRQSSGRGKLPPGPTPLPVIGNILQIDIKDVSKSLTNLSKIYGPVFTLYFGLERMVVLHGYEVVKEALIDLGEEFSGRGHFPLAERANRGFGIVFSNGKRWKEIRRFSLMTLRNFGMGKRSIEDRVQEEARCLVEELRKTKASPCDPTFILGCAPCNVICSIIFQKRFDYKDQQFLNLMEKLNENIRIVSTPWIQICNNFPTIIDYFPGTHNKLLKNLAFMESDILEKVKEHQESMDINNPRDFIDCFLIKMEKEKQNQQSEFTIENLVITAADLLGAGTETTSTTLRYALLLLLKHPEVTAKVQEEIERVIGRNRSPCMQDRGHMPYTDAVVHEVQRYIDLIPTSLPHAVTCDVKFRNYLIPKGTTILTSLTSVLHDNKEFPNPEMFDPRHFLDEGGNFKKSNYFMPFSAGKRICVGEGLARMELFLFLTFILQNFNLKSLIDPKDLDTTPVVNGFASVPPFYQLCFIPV

[8] = target: AURKC (Homo sapiens, UniProt Q9UQB9); experiment: KINOMEScan, AURKC; settings: read-out: AURKC % control
Sequence of AURKC (Q9UQB9 whole entry): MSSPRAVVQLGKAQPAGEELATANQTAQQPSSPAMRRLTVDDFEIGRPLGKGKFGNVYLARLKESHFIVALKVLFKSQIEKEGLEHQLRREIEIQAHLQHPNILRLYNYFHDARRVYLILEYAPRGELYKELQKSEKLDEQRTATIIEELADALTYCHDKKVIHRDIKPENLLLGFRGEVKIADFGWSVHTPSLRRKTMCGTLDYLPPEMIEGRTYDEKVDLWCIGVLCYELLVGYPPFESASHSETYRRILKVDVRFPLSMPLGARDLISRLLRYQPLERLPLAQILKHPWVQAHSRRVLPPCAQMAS

[9] = target: FLT3^K663Q (Homo sapiens, UniProt P36888, K663Q); experiment: KINOMEScan, FLT3 K663Q; settings: read-out: FLT3^K663Q % control
[10] = target: FLT3^N841I (Homo sapiens, UniProt P36888, N841I); experiment: KINOMEScan, FLT3 N841I; settings: read-out: FLT3^N841I % control
[11] = target: KIT^V559D,T670I (Homo sapiens, UniProt P10721, T670I/V559D); experiment: KINOMEScan, KIT V559D,T670I; settings: read-out: KIT^V559D,T670I % control
Sequence of KIT^V559D,T670I (P10721 26-976 V559D/T670I): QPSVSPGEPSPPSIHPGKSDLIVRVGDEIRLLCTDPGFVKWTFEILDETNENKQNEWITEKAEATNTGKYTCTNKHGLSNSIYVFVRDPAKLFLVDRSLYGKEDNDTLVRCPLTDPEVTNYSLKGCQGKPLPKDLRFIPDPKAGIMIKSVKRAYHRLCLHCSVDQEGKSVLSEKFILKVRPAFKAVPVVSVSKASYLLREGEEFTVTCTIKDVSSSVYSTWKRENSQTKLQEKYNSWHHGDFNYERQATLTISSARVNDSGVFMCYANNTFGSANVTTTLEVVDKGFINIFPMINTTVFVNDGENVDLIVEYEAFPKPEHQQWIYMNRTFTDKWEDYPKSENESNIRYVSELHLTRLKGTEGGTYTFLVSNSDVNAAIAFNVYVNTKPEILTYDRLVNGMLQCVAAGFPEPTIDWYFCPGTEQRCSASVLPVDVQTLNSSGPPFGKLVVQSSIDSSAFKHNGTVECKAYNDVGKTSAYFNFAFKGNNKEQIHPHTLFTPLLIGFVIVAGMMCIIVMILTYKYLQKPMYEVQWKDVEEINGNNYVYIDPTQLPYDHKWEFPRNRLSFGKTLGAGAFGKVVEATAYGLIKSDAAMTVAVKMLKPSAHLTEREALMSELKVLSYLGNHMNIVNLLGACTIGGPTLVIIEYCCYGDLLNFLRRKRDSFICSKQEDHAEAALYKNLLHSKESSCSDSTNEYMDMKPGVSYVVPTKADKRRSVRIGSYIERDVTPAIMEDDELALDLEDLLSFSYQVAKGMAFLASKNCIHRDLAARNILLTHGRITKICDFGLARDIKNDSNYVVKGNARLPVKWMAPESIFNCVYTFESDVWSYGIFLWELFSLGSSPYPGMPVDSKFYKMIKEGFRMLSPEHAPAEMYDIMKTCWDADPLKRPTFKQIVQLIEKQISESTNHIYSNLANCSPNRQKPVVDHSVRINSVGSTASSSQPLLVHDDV

`CN(C)CCCOc1ccc2c(NCCc3cnc(NC(=O)Nc4cccc(Cl)c4)s3)ncnc2c1` [BPR1K871, 1-(3-Chlorophenyl)-3-(5-(2-((7-(3-(dimethylamino)propoxy)quinazolin-4-yl)amino)ethyl)thiazol-2-yl)urea] showed an EC50 [1] of 257 nM, an EC50 [2] of 495 nM and an EC50 [3] of 2890 nM. The EC50 ([4]; Homo sapiens, MIA PaCa-2, Human Pancreatic Cancer) was under 100 nM, the EC50 ([4]; Human Pancreatic Cancer) was 94 nM and the “inhibition of phospho AURKA, AURKB, AURKC and phospho histone H3 formation” value [5] was “inhibited; also recorded: decreased levels”. The “growth / volume of MOLM-13 tumor xenograft vs vehicle” value [6] was “significantly reduced; also recorded: inhibited”, the IC50 [7] was over 4000 nM and the remaining binding at 1 µM [8] was 3.3%. The remaining binding at 1 µM [9] was under 5.2%, the remaining binding at 1 µM [10] was under 5.2% and the remaining binding at 1 µM [11] was under 4%.
